These are literature values, as cited in patent US6881247B2, “Protective barrier coating composition” (priority 2003, dated 2005).

For the series the following is noted: calcium hydroxide.

As for `[Ca+2].[OH-].[OH-]` [calcium hydroxide, Calcium hydroxide], the pH is listed as 12.4.
